One test addresses T1, Adenosine receptor A1 (Homo sapiens, UniProt P30542).
T1 sequence (P30542 whole entry): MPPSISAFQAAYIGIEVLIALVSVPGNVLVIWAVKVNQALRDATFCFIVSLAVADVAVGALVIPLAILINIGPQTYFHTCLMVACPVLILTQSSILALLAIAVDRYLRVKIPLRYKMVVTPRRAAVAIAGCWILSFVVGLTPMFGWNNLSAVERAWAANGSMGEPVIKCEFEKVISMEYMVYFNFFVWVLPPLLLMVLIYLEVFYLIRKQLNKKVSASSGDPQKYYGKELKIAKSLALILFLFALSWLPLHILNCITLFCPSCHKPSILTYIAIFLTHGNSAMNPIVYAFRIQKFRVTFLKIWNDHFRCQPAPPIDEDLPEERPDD
Briefly: Displacement of [3H]DPCPX from recombinant adenosine A1 receptor. On the technique in general: In a radioligand displacement assay an active substance lowers the binding of a labelled ligand.

The target of the next test is Adenosine receptor A2a (Homo sapiens, UniProt P29274). The experiment in a line: Displacement of [3H]CGS21680 from human recombinant adenosine A2A receptor.
Sequence of Adenosine receptor A2a (P29274 whole entry): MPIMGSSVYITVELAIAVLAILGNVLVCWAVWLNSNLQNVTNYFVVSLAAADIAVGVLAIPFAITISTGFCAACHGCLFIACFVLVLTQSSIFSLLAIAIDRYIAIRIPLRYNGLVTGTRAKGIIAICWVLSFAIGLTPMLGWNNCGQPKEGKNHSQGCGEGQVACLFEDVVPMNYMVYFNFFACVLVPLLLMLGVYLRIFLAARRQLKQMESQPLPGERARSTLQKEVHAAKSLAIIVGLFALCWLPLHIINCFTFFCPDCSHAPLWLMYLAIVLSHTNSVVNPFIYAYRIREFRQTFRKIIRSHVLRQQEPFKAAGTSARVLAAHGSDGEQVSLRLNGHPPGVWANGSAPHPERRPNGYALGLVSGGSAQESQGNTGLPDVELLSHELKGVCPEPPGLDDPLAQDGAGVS

As usually defined, the Ki is the equilibrium dissociation constant of an inhibitor or competing ligand from its target. Turning to `Fc1ccc(CNc2nc(-c3ccc(Cl)cc3)cc(C(F)(F)F)n2)cc1`, the Ki on Adenosine receptor A1 is greater than 10000 nM; on Adenosine receptor A2a, 454 nM (antagonist).
On to `Fc1ccc(CNc2nc(-c3ccccc3)cc(C(F)(F)F)n2)cc1`, for which the Ki was greater than 10000 nM on Adenosine receptor A1 and 287 nM (antagonist) on Adenosine receptor A2a.
With `CCSc1nc(N)nc(-c2ccccc2)n1`, the figures for the Ki on Adenosine receptor A1 and at Adenosine receptor A2a were 67 nM (antagonist) and 5 nM (antagonist), respectively.
As for `COc1ccc(-c2cccc(-c3nc(N)nc(SC)n3)c2)cn1`, the Ki on Adenosine receptor A1 is given as 840 nM (antagonist); on Adenosine receptor A2a, 23 nM (antagonist).
As to `N#Cc1c(-c2ccc(Cl)cc2)cc(-c2ccccc2Cl)nc1N`, the Ki is 1740 nM (antagonist) on Adenosine receptor A1 and 403 nM (antagonist) on Adenosine receptor A2a.
For `COc1cccc(-c2cc(C(F)(F)F)nc(NCc3ccc(F)cc3)n2)c1` the same measures were greater than 10000 nM and 290 nM (antagonist).
As for `COc1cc(-c2cc(-c3ccc(O)cc3)nc(N)c2C#N)ccc1O`, the results for the Ki at Adenosine receptor A1 and at Adenosine receptor A2a were 94 nM (antagonist) and 151 nM (antagonist), respectively.
For the compound `N#Cc1c(-c2ccc(Cl)cc2)cc(-c2ccccc2)nc1N`, the Ki is reported as 192 nM (antagonist) on Adenosine receptor A1 and 201 nM (antagonist) at Adenosine receptor A2a.
As to `CSc1nc(N)nc(-c2cccc(-c3ccc4[nH]ccc4c3)c2)n1`, the results for the Ki on Adenosine receptor A1 and on Adenosine receptor A2a were 218 nM (antagonist) and 31 nM (antagonist), respectively.
As to `Fc1ccc(CNc2nc(-c3cccs3)cc(C(F)(F)F)n2)cc1`, the Ki on Adenosine receptor A1 was greater than 10000 nM; at Adenosine receptor A2a, 287 nM (antagonist).
For the compound `N#Cc1c(-c2ccc(F)cc2)cc(C2CC2)nc1N`, the Ki on Adenosine receptor A1 is 865 nM (antagonist); on Adenosine receptor A2a it was 106 nM (antagonist).
For `N#Cc1c(-c2ccc(Cl)c(Cl)c2)cc(-c2cccnc2)nc1N` the same measures were greater than 10000 nM and 210 nM (antagonist).
For `CCOc1cc(-c2cc(-c3ccc(O)cc3)nc(N)c2C#N)ccc1O` the same measures were 42 nM (antagonist) and 267 nM (antagonist).
For the compound `N#Cc1c(-c2ccc(F)cc2)cc(-c2ccccc2)nc1N`, the Ki is 59 nM (antagonist) at Adenosine receptor A1 and 87 nM (antagonist) on Adenosine receptor A2a.
For the compound `Cc1ccc(-c2cc(-c3ccccc3)nc(N)c2C#N)cc1`, the figures for the Ki at Adenosine receptor A1 and at Adenosine receptor A2a were 274 nM (antagonist) and 118 nM (antagonist), respectively.
As for `N#Cc1c(N)nc2c(c1-c1ccc(F)cc1)CCC2`, on Adenosine receptor A2a, the Ki is listed as 232 nM (antagonist).
With `N#Cc1c(-c2ccccc2Cl)cc(-c2ccccc2)nc1N`, the Ki at Adenosine receptor A1 is 239 nM (antagonist); at Adenosine receptor A2a it was 89 nM (antagonist).

(Values after ChEMBL document CHEMBL1139731, “Identification of non-furan containing A2A antagonists using database mining and molecular similarity approaches” (Bioorg Med Chem Lett, 2006).)
